Read-outs that look alike come from different tables or passages of the source.
Assays:
[1] = Stability of metal-DOTAM in blood (spontaneous Ca-DOTAM formation); assay type: in vitro ADME, mouse
Excerpt: (§1) The initial choice for quenching was Cu, thus replacing unchelated DOTAM with quenched, non-competing Cu-DOTAM, and a large number of studies within the CEA-PRIT program were executed using this condition. However, it was later discovered that the Cu-DOTAM complex was, in fact, not stable in vivo, and a study was undertaken to assess its stability compared with alternative quenching ions in human and mouse serum, plasma, and blood.

[2] = as above; assay type: in vitro ADME, human
Excerpt: as §1

Row | Compound | spontaneous Ca-DOTAM formation ([1]; mouse blood, 35 minutes p.i.) [%] | spontaneous Ca-DOTAM formation ([2]; human blood, 35 minutes p.i.) [%] | spontaneous Ca-DOTAM formation [1] | spontaneous Ca-DOTAM formation [2] [%]
1 | NC(=O)CN1CCN(CC(N)=O)CCN(CC(N)=O)CCN(CC(N)=O)CC1.[Pb+2] [Pb-DOTAM] | 4 | 4 | – | –
2 | NC(=O)CN1CCN(CC(N)=O)CCN(CC(N)=O)CCN(CC(N)=O)CC1.[Zn+2] [Zn-DOTAM] | – | – | 0% | 0
3 | NC(=O)CN1CCN(CC(N)=O)CCN(CC(N)=O)CCN(CC(N)=O)CC1.[Cu+2] [Cu-DOTAM] | – | – | approximately 25% | ~30
